# Assay results published in US20240139211A1, “METHODS AND COMPOSITIONS FOR TREATING AMYOTROPHIC LATERAL SCLEROSIS” (Amylyx Pharmaceuticals, Inc., priority 2022, published 2024).
# What was measured:
# OAT3 = target: T1, OAT3 (Homo sapiens, UniProt Q8TCC7); assay: Substrate of OAT3, uptake in HEK293 cells
# T1 sequence (Q8TCC7 1-542): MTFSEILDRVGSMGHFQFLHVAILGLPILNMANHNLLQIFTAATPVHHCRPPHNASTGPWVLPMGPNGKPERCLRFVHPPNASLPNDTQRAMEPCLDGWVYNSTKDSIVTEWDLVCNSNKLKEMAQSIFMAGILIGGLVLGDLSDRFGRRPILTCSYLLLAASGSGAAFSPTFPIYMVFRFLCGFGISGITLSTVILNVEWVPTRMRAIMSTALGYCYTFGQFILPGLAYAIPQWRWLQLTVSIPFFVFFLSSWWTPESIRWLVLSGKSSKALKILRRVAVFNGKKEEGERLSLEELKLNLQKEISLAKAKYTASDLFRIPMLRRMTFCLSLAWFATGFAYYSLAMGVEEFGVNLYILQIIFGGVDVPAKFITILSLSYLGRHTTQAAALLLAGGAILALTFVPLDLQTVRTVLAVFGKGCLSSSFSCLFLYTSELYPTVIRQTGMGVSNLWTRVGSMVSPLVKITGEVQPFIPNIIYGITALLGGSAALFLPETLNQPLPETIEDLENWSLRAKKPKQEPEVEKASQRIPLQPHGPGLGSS
# Description: (§1) Vector-transfected HEK cells were used as a control.
# OCT1 = target: T2, OCT1 (Homo sapiens, UniProt O15245); assay: Substrate of OCT1, uptake in HEK293 cells
# T2 sequence (O15245 1-554): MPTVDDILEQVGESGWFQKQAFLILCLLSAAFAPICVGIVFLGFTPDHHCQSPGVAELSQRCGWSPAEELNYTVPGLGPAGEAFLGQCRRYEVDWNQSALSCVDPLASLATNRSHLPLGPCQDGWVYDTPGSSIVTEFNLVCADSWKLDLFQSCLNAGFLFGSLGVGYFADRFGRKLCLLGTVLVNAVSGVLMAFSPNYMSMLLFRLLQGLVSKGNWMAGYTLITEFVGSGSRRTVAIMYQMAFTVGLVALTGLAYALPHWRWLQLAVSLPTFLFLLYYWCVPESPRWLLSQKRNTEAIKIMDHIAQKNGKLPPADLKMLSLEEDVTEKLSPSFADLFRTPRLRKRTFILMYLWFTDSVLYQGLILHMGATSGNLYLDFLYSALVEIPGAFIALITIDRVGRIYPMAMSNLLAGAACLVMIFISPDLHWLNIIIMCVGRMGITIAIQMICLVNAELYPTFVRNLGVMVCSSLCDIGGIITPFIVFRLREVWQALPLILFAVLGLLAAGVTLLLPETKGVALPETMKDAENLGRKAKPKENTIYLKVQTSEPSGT
# Description: as §1
# OATP1B3 [1] = target: T3, OATP1B3 (Homo sapiens, UniProt Q9NPD5); assay: Substrate of OATP1B3, uptake in HEK293 cells
# Description: as §1
# Caco-2 cells = settings: 1 and 10 μM (tauroursodeoxycholic acid: 10 μM)
# in vitro = settings: human, Caco-2
# BSEP [2] = target: T4, BSEP (Homo sapiens, UniProt O95342); assay: Substrate of BSEP; settings: test article 1 and 10 μM
# BSEP [3] = target: T4, BSEP; assay: Inhibitor of BSEP
# OAT1 = target: T5, OAT1 (Homo sapiens, UniProt Q4U2R8); assay: Inhibitor of OAT1, probe substrate uptake
# T5 sequence (Q4U2R8 1-563): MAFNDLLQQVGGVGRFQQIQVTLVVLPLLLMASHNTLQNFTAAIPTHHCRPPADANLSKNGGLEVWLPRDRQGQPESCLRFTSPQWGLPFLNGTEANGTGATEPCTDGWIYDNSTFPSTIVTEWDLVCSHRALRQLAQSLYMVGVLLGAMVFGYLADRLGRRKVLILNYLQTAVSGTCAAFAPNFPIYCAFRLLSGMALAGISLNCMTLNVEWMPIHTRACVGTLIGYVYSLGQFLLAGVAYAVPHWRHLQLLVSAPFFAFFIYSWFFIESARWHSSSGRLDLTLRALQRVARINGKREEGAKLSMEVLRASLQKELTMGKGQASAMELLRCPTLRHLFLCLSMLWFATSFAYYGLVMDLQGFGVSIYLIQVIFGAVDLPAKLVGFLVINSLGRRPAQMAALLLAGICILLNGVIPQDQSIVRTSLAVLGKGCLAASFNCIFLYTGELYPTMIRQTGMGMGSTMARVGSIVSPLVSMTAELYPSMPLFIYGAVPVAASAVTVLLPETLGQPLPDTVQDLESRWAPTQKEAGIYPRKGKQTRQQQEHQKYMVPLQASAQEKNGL
# OATP1B3 [4] = target: T3, OATP1B3; assay: Inhibitor of OATP1B3, probe substrate uptake; settings: two concentrations per test article
# human hepatocytes [5] = assay: Stability of test articles in hepatocyte cultures; settings: two concentrations
# CYP1A2 mRNA = assay: CYP1A2 gene expression induction in hepatocyte cultures; settings: Donor 1
# CYP2B6 mRNA = assay: CYP2B6 gene expression induction in hepatocyte cultures; settings: Donor 1
# CYP3A4 mRNA = assay: CYP3A4 gene expression induction in hepatocyte cultures; settings: gene expression and enzyme activity, three donors
# human hepatocytes [6] = assay: Cytotoxicity of six test articles in hepatocyte cultures (MTS); settings: Donor 1, 72±2 hours
# [7] = two concentrations per test article
# T4 sequence (O95342 whole entry): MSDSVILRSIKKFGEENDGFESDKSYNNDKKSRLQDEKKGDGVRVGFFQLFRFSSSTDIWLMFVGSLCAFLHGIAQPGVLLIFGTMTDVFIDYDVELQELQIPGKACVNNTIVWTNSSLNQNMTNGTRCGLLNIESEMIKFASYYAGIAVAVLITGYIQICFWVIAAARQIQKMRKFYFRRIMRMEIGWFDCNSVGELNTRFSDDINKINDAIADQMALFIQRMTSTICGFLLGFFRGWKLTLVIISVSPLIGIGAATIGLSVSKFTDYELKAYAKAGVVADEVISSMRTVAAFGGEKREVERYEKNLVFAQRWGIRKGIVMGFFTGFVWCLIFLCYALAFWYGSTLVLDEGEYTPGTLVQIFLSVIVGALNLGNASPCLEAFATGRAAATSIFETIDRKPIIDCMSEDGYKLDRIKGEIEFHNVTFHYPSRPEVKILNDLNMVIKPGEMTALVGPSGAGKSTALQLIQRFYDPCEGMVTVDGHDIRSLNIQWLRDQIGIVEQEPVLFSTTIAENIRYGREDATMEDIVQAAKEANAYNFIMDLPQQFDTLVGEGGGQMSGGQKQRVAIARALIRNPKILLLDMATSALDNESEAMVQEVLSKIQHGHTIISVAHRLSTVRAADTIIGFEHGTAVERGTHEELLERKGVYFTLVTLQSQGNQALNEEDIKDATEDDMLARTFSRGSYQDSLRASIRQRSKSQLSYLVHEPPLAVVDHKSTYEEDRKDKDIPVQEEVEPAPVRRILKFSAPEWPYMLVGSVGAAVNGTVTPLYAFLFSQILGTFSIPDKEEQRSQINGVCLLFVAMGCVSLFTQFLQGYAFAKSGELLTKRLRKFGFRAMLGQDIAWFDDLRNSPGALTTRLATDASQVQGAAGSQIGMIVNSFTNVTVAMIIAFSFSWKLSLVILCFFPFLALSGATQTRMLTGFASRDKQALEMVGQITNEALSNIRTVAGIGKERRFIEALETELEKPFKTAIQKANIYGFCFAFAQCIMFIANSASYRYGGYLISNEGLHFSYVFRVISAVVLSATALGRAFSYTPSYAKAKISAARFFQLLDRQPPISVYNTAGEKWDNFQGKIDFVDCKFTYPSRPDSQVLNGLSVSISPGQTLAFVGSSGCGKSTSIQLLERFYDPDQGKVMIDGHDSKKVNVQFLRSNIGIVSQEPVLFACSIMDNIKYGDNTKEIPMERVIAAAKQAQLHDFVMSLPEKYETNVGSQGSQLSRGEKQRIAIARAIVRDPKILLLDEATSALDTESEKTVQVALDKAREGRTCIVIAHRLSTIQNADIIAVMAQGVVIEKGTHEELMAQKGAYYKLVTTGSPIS
# T3 sequence (Q9NPD5 whole entry): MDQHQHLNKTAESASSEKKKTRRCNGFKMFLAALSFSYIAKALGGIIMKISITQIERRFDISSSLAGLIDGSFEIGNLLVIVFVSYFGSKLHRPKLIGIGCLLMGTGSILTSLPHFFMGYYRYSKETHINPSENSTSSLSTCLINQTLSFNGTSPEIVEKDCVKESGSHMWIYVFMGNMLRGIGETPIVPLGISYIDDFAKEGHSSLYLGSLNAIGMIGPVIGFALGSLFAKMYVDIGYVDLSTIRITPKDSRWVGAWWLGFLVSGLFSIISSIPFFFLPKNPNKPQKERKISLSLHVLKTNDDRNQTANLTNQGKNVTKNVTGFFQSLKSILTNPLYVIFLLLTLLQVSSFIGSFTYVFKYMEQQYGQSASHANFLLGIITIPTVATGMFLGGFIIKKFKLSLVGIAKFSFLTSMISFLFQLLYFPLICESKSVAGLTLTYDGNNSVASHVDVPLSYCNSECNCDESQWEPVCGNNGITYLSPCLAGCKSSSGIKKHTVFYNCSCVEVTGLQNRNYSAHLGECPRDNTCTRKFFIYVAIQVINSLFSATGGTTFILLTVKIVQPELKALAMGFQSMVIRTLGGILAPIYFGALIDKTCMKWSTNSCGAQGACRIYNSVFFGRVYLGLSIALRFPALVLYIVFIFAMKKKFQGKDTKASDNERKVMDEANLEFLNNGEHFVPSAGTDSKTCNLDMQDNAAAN
smiles,measurement,setting,value
"O=C(O)Cc1ccccc1 [Phenylacetic acid, phenylacetic acid]",Substrate of OAT3,OAT3; 1 and 10 μM,not a substrate
same,Substrate of OAT3,OAT3; test article 1 and 10 μM,No
same,Substrate of OCT1,OCT1; 1 and 10 μM,not a substrate
same,Substrate of OCT1,OCT1; test article 1 and 10 μM,No
same,Uptake in OATP1B3 cells,OATP1B3 [1]; 1 μM,5.27 pmol/minute/mg protein
same,Net OATP1B3 uptake remaining with inhibitor,OATP1B3 [1]; 10 μM,79.0%
same,Uptake in OATP1B3 cells,OATP1B3 [1]; 10 μM,19.3 pmol/min/mg
same,Substrate of OATP1B3,OATP1B3 [1]; 1 and 10 μM,identified as a substrate
same,Substrate of OATP1B3,OATP1B3 [1]; test article 1 and 10 μM,Yes
same,Permeability in Caco-2 cell assay,Caco-2 cells,high permeability
same,Papp A→B,in vitro,≥ 26.1 ×10⁻⁶ cm/s
same,Papp B→A,in vitro,≥ 16.9 ×10⁻⁶ cm/s
same,recovery,in vitro,≥ 90.2%
same,Substrate of BSEP,BSEP [2],No
same,potency estimated from few doses,BSEP [3]; human,< 7.5 mM
same,Inhibition of BSEP,BSEP [3]; [7],inhibited
same,Inhibitor of BSEP,BSEP [3]; [7],Yes
same,"Uptake activity remaining, OAT1",OAT1; 750 μM,35.2%
same,potency estimated from few doses,"OAT1; read-out: Estimated IC50, OAT1, estimated from two concentrations",< 0.75 mM
same,Inhibition of OAT1,OAT1; [7],inhibited
same,Inhibitor of OAT1,OAT1; [7],Yes
same,Inhibition of OATP1B3,OATP1B3 [4],did not inhibit
same,Inhibitor of OATP1B3,OATP1B3 [4],No
same,% of time zero remaining in hepatocyte cultures,human hepatocytes [5]; 4 hours,≤ 75.9%
same,% of time zero remaining in hepatocyte cultures,human hepatocytes [5]; 24 hours,≤ 2.31%
same,"Emax, CYP1A2 gene expression",CYP1A2 mRNA,3.32 fold
same,"Emax, CYP2B6 gene expression",CYP2B6 mRNA,11.1 fold
same,Inducer of CYP3A4 (conclusion),CYP3A4 mRNA,do not identify phenylacetic acid as an inducer of CYP3A4
same,Concentrations at which not hepatotoxic,human hepatocytes [6],≤ 500 µM
